The values below come from PMC9862186 (International Journal of Molecular Sciences, 2023).

For orientation: AUC means the area under the concentration-time curve, a measure of exposure. Usually Cmax stands for the highest concentration seen after dosing. As usually defined, the Kp is tissue or fluid exposure divided by exposure in the circulation.

Data set [1] is described as follows: in vivo. As to conditions: rat, po. The procedure:
(§1) At the end of the infusions and at fixed time points, CSF samples (50 μL) were withdrawn and blood samples (100 μL) were collected. The CSF was withdrawn using the cisternal puncture method described by van den Berg et al., which requires a single needle stick and allows the collection of serials (40–50 μL) CSF samples that are virtually blood-free. A total volume of about a maximum of 150 μL of CSF/rat (i.e., three 50 μL samples/rat) was collected during the experimental session, choosing the time points (n = 3–5, taking into account a maximum of three collections per rat) in order to allow the restoring of the CSF physiological volume.
Each type of formulation was administered to a group of four rats.
In particular, 4.2 mL of EU-CD formulation were administered to rats (500 mg/kg dose).
In particular, 320 μL of EU-SL formulation were administered to rats (500 mg/kg dose).
Free cinnamaldehyde (100 mg) was orally administered by gavage to rats kept fasting since 24 h. In particular, 95 μL of cinnamaldehyde (density = 1.05 g/mL) were dissolved in 905 μL of corn oil and administered to rats (400 mg/kg dose).
The solid AC-GN formulation (14% w/w cinnamaldehyde) was mixed with palatable food in order to induce their oral intake by the rats kept fasting since 24 h. In particular, the rats assumed a dose of 100 mg of cinnamaldehyde (400 mg/kg) contained in 714 mg of AC-GN.
After the administrations, blood (100 μL) and CSF samples (50 μL) were serially collected at fixed time points from each rat and treated as described above in order to quantify the compounds.

The test system of the next data set is PC12 cells. As to the kind of experiment: MTT cell viability assay in neuronal differentiated PC12 cells. The data set is classed as cell-based, rat. The settings on record: 2 h. As for the experimental part:
PC12 cell line (RRID:CVCL_0481), derived from rat adrenal gland pheochromocytoma, was a kind gift from Dr Federica Brugnoli from the Department of Translational Medicine, University of Ferrara, Ferrara (Italy). The cells were grown in RPMI-1640 (HiGlutaXL) medium (Microtech, Naples, Italy), supplemented with 100 µg/mL streptomycin and 100 IU/mL penicillin, 10% horse serum (HS), and 5% fetal bovine serum (FBS). PC12 cells were gently removed from the 4 µg/cm^2 collagen IV-coated flask with a rubber scraper, transferred as cell suspension into a Falcon tube and resuspended through a sterile tip to avoid any clumping, then split into separate flasks twice weekly. To differentiate neuronal phenotypes, PC12 cells were seeded in 4 µg/cm^2 collagen IV-coated 12-well plates at a density of 5000 cells/well, and they were then left to adhere to the well for 24 h. […] All the proliferative and differentiated cultures were maintained at 37 °C in a humidified 5% CO2 atmosphere.
The 100% of cell viability was stated as control in the absence of compound. Then, incubation buffer was withdrawn, and 0.2 mL per well of a solution of MTT 500 µg/mL was added to each well and kept for 2 h at 37 °C in a humidified atmosphere at 95% with 5% CO2. After the conversion of the substrate to a chromogenic product by metabolically active cells, the MTT solution was removed, and the purple MTT formazan crystals were solubilized with 0.1 mL/well of DMSO for 60 min at 37 °C. The absorbance of each sample was measured with a multiplate reader spectrophotometer (Sunrise® Microplate Reader, Tecan Trading AG, Männedorf, Switzerland) at 570 nm, using 690 nm as a reference wavelength. Cell viability, proportional to absorbance, was reported as ratio between the absorbance resulting from the treatments and absorbance resulting from the control, considered as 100% of viable cells. Data were plotted as graphs and analyzed using GraphPad software (Prism, version 7.0, San Diego, CA, USA).
(Tetrazolium assays rely on reduction of a dye to a coloured formazan, in cell work by metabolically active cells.)

Data set [2] in a line: in vivo. The settings on record: male, Wistar, rat, in vivo, iv. As for the experimental part:
A saline solution (0.9% NaCl) was added to a mixture of cinnamaldehyde (density = 1.05 g/mL) and Cremophor® RH 40 (1:1 v/v) in order to obtain a 12.5 mg/mL cinnamaldehyde emulsion in the presence of ethanol (10% of final volume). A group (n = 4) of male Wistar rats (200–250 g) fasted for 24 h was anesthetized during the experimental period and received 0.4 mL via a femoral intravenous infusion (rate = 0.2 mL/min; 2 min) of 12.5 mg/mL cinnamaldehyde emulsion (20 mg/kg cinnamaldehyde dose).
as §1
The chromatographic apparatus consisted of a modular system (model LC-10 AD VD pump and model SPD-10A VP variable wavelength UV−vis detector; Shimadzu, Kyoto, Japan) and an injection valve with 20 μL sample loop (model 7725; Rheodyne, IDEX, Torrance, CA, USA). Separations were performed at room temperature on a 5 μm Hypersil BDS C-18 column (150 mm × 4.6 mm i.d.; Alltech Italia Srl, Milan, Italy) equipped with a guard column packed with the same Hypersil material. The volume injection was 10 μL. Data acquisition and processing were performed on a personal computer using CLASS-VP Software, version 7.2.1 (Shimadzu Italia, Milan, Italy).
For CSF simulation, standard aliquots of balanced solution (Dulbecco’s phosphate buffer saline—DPBS—without calcium and magnesium) in the presence of 0.45 mg/mL BSA were used.

The structures appear in SMILES notation.

Consider `C=CCc1ccc(O)c(OC)c1` [Eugenol], for which, in the data set “in vivo [1]”, the area under the curve (AUC) is 516 ng·h/mL and the “Tmax: time of Cmax in CSF” value turned out to be 20 min. In addition, the “increase of cell viability over the untreated cell value” in the data set on PC12 cells (25 µM, 37 °C, NGF-differentiated PC12) came to 2.5 times. Besides, the “effect on cell viability compared to untreated control” value with PC12 cells (2, 25, 50 and 100 µM, p < 0.0001, no toxic impact) is “statistically significant increase in cell viability”. Besides, the “most effective concentration in increasing cell viability” value in the data set with PC12 cells (tested 2, 25, 50 and 100 µM) was found to be 25 µM. Further, the “Tmax: time of Cmax in CSF” value in the data set “in vivo [2]” was found to be 10 min. Also, in the data set “in vivo [2]” (20 mg/kg), the AUC is 935 ng·h/mL, the Cmax amounted to 2790 ± 180 ng/mL and the “time within which CSF concentrations decreased to zero or near to zero” value was ≤ 45 min. The Kp at 10 min in the data set “in vivo [2]” (R: ratio of concentration between CSF and bloodstream at Tmax) was determined as 0.96.
